Results taken from patent US11440886B2, “Anti-inflammatory compound, and preparation and use thereof” (E-Nitiate Biopharmaceuticals (Hangzhou) Co., Ltd., priority 2018, dated 2022).
pEC50, pIC50: −log10 of the molar value.

Tests used:
[1] = biological target: human recombinant PDE4B1 enzyme (Homo sapiens (Human), UniProt Q07343); test: Inhibition of PDE4B1 activity by cAMP HTRF assay; assay type: biochemical; details: human recombinant PDE4B1, cAMP 40 nM, pH 7.4
In short: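 Recombinant human PDE4B1 (4.8 U) was preincubated 10 min with compound in HBSS/HEPES/MgCl2/BSA, pH 7.4, then 40 nM cAMP was added for 60 min at RT. Remaining cAMP was read by HTRF after IBMX stop; IC50 from eight concentrations in duplicate, repeated twice.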

[2] = test system: human peripheral blood mononuclear cells (PBMCs); test: Inhibition of LPS-induced TNFα release by peripheral blood mononuclear cells (PBMCs); assay type: cell-based; details: PBMC, TNFα level in supernatant, LPS 1 ug/mL, 24 hours, Luminex
Procedure: Inhibition of the compounds on proinflammatory cytokine release by peripheral blood mononuclear cells (PBMCs)
The effect of the compounds on the release characteristics of TNFa cytokines in frozen human peripheral blood mononuclear cells (PBMCs) was determined.
Fresh human PBMCs were isolated, and suspended in a fresh medium. The PBMC medium (CM) is RPMI1640 containing 10% FBS, 1% PBS, and 2 mM L-glutamine. The cells were plated at a density of 2*10^5 cells/well (100 ul). The test compound was dissolved in DMSO to form a 10 mM sample (DMSO, 100%). The compound was diluted with PBMC medium to the required concentrations. The sample (50 uL) was incubated for 1 hr with cells at 37° C., 5% CO2, after which the inducer (LPS, 1 ug/mL) was added. The inducer+vehicle (LPS+0.05% DMSO) was used as a control in this experiment. The vehicle without inducer was used as a negative control. Crisaborole was used as a positive control. After 24 hours of incubation, the supernatant was extracted and stored at −80° C. The supernatant was thawed and the TNFα level in the supernatant was measured by Luminex4-plex assay.

PDE4 = details: background statement; cited from earlier work
eczema = details: patients with eczema; cited from earlier work
cytokine release = details: background statement; cited from earlier work

human recombinant PDE4B1 enzyme, sequence (Q07343 whole entry): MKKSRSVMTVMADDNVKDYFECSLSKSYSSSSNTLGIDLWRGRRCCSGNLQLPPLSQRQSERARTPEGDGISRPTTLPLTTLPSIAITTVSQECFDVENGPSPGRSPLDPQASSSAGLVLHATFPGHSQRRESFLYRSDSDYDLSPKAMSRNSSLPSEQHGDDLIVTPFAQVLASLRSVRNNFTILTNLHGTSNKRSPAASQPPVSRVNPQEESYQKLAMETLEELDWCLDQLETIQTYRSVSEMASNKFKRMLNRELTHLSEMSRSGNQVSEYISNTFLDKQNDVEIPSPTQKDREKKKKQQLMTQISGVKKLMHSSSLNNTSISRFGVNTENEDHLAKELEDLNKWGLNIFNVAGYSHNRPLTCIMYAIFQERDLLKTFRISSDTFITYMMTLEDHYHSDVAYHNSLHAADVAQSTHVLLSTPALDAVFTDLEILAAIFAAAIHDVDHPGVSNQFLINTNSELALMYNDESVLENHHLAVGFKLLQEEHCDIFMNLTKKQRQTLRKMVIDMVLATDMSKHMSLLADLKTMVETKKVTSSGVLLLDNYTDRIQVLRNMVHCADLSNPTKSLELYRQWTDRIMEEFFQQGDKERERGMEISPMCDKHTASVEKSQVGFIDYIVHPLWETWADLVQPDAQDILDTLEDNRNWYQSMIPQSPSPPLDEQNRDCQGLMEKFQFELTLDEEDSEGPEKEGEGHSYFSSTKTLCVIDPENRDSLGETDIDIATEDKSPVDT

SMILES	pIC50 [1]	pEC50 [2]	enzyme inhibition activity (PDE4)	clinical effect on eczema higher than that of the blank control (eczema)	proportion of patients who cannot benefit (eczema)	cell activity inhibiting cytokine release (cytokine release)
Cc1cc(=O)cc(C)n1/C=C/c1ccc(OC(F)F)c(OCC2CC2)c1 [Example 88, (E)-1-(3-(cyclopropylmethoxy)-4-(difluoromethoxy)styryl)-2,6-dimethylpyridin-4(1H)-one]	8.55	> 8.30	–	–	–	–
COc1ccc(/C=C/n2c(C)cc(=O)cc2C)cc1OC1CCSC1 (stereo not shown) [Example 80, (E)-1-((3-(tetrahydrothiophen-3-yl)oxy-4-methoxy)-styryl)-2,6-dimethylpyridin-4(1H)-one]	8.15	> 8.30	–	–	–	–
N#Cc1ccc(Oc2ccc3c(c2)COB3O)cc1 [Crisaborole]	–	–	about 100 nM	about 10%	about 50%	about 500 nM
COc1ccc(/C=C/n2c(C)cc(=O)cc2C)cc1OCCSC [Example 77, (E)-1-(3-methylthioethoxy-4-methoxystyryl)-2,6-dimethylpyridin-4(1H)-one]	7.58	7.96	–	–	–	–
